Columns and labels:
[1] = Half life in mouse liver microsomes in presence of NADPH by LC/MS/MS method; type: ADME, Microsome; conditions: liver microsomes
[2] = target: T1, Nuclear receptor ROR-beta (Homo sapiens, UniProt Q92753); experiment: Inverse agonist activity at Gal4-fused RORbeta (unknown origin)
T1 sequence (Q92753 whole entry): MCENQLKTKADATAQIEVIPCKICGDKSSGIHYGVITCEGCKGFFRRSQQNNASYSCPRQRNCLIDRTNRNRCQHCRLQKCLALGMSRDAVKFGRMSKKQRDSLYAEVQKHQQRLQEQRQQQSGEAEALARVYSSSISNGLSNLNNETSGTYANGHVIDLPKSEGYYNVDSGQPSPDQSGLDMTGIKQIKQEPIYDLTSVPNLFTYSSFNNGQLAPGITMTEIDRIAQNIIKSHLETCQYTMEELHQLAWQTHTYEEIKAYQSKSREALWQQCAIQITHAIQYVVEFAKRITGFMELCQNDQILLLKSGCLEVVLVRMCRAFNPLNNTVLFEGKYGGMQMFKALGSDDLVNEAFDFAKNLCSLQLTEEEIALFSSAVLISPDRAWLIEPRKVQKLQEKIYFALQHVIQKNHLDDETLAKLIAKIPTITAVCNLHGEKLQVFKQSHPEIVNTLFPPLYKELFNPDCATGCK

[3] = target: T2, Nuclear receptor ROR-gamma (Mus musculus, UniProt P51450); experiment: Inverse agonist activity at RORgammat in mouse whole blood assessed as suppression of […] secretion; type: tissue-based
T2 sequence (P51450 whole entry): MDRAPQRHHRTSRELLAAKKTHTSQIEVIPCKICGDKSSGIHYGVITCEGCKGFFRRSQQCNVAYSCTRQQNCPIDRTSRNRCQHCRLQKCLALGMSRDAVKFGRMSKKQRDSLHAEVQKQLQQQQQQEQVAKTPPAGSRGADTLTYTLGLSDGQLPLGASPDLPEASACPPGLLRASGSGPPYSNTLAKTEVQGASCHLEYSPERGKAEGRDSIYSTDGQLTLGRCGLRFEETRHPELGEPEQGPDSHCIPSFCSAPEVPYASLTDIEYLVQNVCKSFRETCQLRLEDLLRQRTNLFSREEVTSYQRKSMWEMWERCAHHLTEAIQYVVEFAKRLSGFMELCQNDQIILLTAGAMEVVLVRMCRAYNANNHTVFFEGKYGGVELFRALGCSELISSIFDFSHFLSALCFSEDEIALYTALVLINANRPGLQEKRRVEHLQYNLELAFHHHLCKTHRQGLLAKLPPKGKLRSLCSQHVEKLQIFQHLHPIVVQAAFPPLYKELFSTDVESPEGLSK

[4] = target: T3, Nuclear receptor subfamily 1 group I member 2 (Homo sapiens, UniProt O75469); experiment: Inverse agonist activity at PXR (unknown origin)
T3 sequence (O75469 whole entry): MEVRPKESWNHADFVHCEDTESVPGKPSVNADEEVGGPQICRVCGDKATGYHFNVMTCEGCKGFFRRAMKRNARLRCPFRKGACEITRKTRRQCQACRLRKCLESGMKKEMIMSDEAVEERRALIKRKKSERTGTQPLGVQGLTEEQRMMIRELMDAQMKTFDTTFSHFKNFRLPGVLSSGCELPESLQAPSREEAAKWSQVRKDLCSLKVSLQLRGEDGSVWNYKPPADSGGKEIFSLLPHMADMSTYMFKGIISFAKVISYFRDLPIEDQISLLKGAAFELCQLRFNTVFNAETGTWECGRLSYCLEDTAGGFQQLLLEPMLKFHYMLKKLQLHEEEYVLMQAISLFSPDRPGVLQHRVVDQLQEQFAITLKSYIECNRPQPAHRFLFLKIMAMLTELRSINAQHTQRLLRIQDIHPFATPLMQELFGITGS

[5] = target: T4, Oxysterols receptor LXR-beta (Homo sapiens, UniProt P55055); experiment: Inverse agonist activity at LXRbeta (unknown origin)
T4 sequence (P55055 whole entry): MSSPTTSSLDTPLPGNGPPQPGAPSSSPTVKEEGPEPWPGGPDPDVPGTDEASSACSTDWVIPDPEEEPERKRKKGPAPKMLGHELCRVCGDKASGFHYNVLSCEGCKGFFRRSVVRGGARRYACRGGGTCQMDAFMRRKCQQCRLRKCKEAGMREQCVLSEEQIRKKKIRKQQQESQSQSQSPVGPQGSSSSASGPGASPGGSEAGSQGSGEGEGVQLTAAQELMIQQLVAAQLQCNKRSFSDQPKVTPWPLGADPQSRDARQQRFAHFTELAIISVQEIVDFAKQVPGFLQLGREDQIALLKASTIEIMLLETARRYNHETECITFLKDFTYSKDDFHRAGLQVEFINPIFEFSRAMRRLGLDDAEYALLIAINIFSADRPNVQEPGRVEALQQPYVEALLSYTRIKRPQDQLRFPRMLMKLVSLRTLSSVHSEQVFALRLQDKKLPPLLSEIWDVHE

[6] = target: Cytochrome P450 2C9 (Homo sapiens, UniProt P11712); experiment: Inhibition of recombinant CYP2C9 (unknown origin); type: ADME
[7] = target: Cytochrome P450 2D6 (Homo sapiens, UniProt P10635); experiment: Inhibition of recombinant CYP2D6 (unknown origin); type: ADME
[8] = target: Cytochrome P450 3A4 (Homo sapiens, UniProt P08684); experiment: Inhibition of recombinant CYP3A4 (unknown origin); type: ADME
[9] = Permeability across apical to basolateral side in human Caco2 cells; type: ADME, cell-based; conditions: Caco-2, read-out: permeability
[10] = Fraction unbound in human plasma; type: ADME, cell-free
[11] = Fraction unbound in mouse plasma; type: ADME, cell-free
[12] = Fraction unbound in rat plasma; type: ADME, cell-free
[13] = Clearance in mouse at 2 mg/kg, iv; type: ADME, organism-based; conditions: in vivo
[14] = Cmax in rat at 4 mg/kg, po; type: ADME, organism-based; set-up: dose 4 mg/kg, route oral; conditions: in vivo
[15] = Clearance in cynomolgus monkey at 1 mg/kg, iv; type: ADME, organism-based, Macaca fascicularis; conditions: in vivo
[16] = Cmax in cynomolgus monkey at 1 mg/kg, po; type: ADME, organism-based, Macaca fascicularis; set-up: dose 1 mg/kg, route oral; conditions: in vivo
[17] = Volume of distribution in steady state in dog at 1 mg/kg, iv; type: ADME, organism-based, Canis lupus familiaris; conditions: in vivo, read-out: Vdss
[18] = AUC (0 to 24 hrs) in dog at 1 mg/kg, po; type: ADME, organism-based, Canis lupus familiaris; set-up: time < 24 hr, dose 1 mg/kg, route oral; conditions: in vivo
[19] = Oral bioavailability in mouse at 4 mg/kg; type: ADME, organism-based; conditions: in vivo
[20] = Half life in rat at 2 mg/kg, iv; type: ADME, organism-based; conditions: in vivo
[21] = Oral bioavailability in rat at 4 mg/kg; type: ADME, organism-based; conditions: in vivo
[22] = Half life in dog at 1 mg/kg, iv; type: ADME, organism-based, Canis lupus familiaris; conditions: in vivo
[23] = Oral bioavailability in dog at 1 mg/kg; type: ADME, organism-based, Canis lupus familiaris; conditions: in vivo
[24] = Half life in cynomolgus monkey at 1 mg/kg, iv; type: ADME, organism-based, Macaca fascicularis; conditions: in vivo
[25] = Oral bioavailability in cynomolgus monkey at 1 mg/kg; type: ADME, organism-based, Macaca fascicularis; conditions: in vivo
[26] = AUC (0 to 24 hrs) in cynomolgus monkey at 1 mg/kg, po; type: ADME, organism-based, Macaca fascicularis; set-up: dose 1 mg/kg, time < 24 hr, route oral; conditions: in vivo
[27] = Half life in rat liver microsomes in presence of NADPH by LC/MS/MS metho; type: ADME, Microsome; conditions: liver microsomes
[28] = target: Cytochrome P450 2C19 (Homo sapiens, UniProt P33261); experiment: Inhibition of recombinant CYP2C19 (unknown origin); type: ADME
Chain of Cytochrome P450 2C19 (P33261 whole entry): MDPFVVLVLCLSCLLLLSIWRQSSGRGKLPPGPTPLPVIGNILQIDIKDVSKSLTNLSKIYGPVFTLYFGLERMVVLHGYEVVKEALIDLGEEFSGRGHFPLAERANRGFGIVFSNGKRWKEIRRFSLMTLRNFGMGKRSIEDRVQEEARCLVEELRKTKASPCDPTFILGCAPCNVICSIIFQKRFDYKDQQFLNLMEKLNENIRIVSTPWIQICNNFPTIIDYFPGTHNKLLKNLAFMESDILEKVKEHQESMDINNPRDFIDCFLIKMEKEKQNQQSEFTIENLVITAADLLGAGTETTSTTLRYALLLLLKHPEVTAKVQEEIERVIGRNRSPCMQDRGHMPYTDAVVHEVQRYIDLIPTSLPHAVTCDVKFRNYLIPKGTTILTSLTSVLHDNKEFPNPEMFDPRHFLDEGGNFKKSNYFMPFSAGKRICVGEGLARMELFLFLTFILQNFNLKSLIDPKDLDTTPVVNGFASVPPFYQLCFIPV

Chain of Cytochrome P450 2D6 (P10635 whole entry): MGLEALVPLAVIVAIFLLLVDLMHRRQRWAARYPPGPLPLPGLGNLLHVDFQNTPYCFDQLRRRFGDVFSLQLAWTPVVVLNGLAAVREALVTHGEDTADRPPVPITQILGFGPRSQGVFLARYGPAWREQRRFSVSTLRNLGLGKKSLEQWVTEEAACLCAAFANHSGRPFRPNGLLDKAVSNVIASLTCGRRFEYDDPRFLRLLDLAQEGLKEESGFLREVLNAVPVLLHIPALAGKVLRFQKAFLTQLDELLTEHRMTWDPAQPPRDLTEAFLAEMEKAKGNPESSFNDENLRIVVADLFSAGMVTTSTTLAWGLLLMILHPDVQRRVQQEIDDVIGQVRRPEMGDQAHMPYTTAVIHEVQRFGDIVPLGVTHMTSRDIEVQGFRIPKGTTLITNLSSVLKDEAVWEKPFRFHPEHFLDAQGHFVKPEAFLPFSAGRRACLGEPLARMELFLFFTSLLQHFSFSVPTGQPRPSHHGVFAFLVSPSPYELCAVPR
Chain of Cytochrome P450 2C9 (P11712 whole entry): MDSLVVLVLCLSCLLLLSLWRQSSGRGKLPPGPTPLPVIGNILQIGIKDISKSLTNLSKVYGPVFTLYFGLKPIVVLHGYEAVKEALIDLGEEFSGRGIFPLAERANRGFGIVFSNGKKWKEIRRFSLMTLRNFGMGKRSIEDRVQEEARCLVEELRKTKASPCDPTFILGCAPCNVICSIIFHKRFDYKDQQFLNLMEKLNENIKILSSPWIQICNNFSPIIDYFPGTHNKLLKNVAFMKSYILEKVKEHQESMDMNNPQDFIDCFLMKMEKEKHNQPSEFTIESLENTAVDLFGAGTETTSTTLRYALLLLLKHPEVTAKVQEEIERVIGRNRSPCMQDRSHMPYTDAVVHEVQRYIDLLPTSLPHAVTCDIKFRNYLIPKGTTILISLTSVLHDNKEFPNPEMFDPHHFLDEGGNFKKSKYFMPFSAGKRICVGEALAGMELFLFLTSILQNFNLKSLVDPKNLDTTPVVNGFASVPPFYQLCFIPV
Chain of Cytochrome P450 3A4 (P08684 whole entry): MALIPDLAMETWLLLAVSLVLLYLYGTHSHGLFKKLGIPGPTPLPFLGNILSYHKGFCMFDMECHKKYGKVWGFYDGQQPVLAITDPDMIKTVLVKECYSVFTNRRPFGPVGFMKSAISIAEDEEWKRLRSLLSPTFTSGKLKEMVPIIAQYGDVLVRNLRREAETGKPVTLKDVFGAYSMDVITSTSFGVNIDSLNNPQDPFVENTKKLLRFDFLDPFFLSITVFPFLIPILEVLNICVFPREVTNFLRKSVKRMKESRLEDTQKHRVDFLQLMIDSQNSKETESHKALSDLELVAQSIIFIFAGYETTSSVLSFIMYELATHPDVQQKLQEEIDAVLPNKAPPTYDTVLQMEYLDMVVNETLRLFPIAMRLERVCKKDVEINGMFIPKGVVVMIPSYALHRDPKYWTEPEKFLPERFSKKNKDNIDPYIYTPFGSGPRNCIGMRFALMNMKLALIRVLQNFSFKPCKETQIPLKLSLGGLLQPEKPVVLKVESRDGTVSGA

C[C@H]1C[C@H](C(=O)O)CC[C@H]1C(=O)N1CC[C@@]2(S(=O)(=O)c3ccc(F)cc3)c3ccc(C(F)(C(F)(F)F)C(F)(F)F)cc3CC[C@@H]12 [BMS-986251]
half-life [1]: > 2 h
EC50 [2]: > 10 µM
EC50 [3]: 0.011 µM
EC50 [4]: > 5 µM
EC50 [5]: > 7.5 µM
IC50 [6]: > 20 µM
IC50 [7]: > 20 µM
IC50 [8]: > 20 µM
Papp A→B [9]: 24 ×10⁻⁶ cm/s
fraction unbound [10]: 0.012
fraction unbound [11]: 0.016
fraction unbound [12]: 0.021
clearance [13]: 2.7 mL/min/kg
Cmax [14]: 4.7 µM
clearance [15]: 1.1 mL/min/kg
Cmax [16]: 3.1 µM
Vd [17]: 0.5 L/kg
AUC(0-t) at 24 h [18]: 120 µM·h
bioavailability [19]: 100%
half-life [20]: 11 h
bioavailability [21]: 94%
half-life [22]: 36 h
bioavailability [23]: 100%
half-life [24]: 33 h
bioavailability [25]: 100%
AUC(0-t) at 24 h [26]: 35 µM·h
half-life [27]: > 2 h
IC50 [28]: > 20 µM
